Columns and labels:
[1] = tested on: ovarian cancer cells (platelet-activating factor receptor); set-up: method as in PMID 34571986; conditions: in vitro; targets the platelet-activating factor receptor; cited from earlier work
[2] = biological target: T1, bovine serum albumin (BSA) (Bos taurus, UniProt P02769); experiment: Synchronous fluorescence of BSA with RUPA; assay type: binding; conditions: RUPA 0-100 µM, BSA 2 µM, 303 K
Text: Using synchronous fluorescence, the influence of the ligand on the protein has been thoroughly investigated. The distinctive details regarding the protein’s Tyr and Trp residues can be gained by fixing the scanning interval (∆λ) between the excitation and emission wavelengths at 15 and 60 nm, respectively.

[3] = set-up: method as in PMID 23160091; conditions: cited from earlier work
[4] = biological target: T1, bovine serum albumin (BSA); experiment: FT-IR spectroscopy of BSA with and without RUPA; conditions: BSA 2 µM + RUPA 40 µM, pH 7.4, 303 K; free BSA 1646
[5] = biological target: T1, bovine serum albumin (BSA); experiment: Competitive binding analysis using site probes (phenylbutazone site I, diazepam site II); conditions: site marker competition
Experimental: Phenylbutazone and diazepam are the site probes for sites Ⅰ and Ⅱ, respectively. The BSA and site probe concentrations in this experiment were maintained at 2 µM and 10 µM, respectively. Rupatadine concentrations ranged from 10 to 100 µM. After excitation at 279 nm, fluorescence intensity measurements were made at 341 nm. At 303 K, measurements were made.

[6] = biological target: T1, bovine serum albumin (BSA); experiment: Fluorescence quenching of BSA by RUPA (Stern-Volmer, modified Stern-Volmer, van't Hoff analysis); assay type: binding; conditions: for Ksv (Stern-Volmer quenching constant): BSA 2 µM, RUPA 0-100 µM
Experimental: The fluorescence data were corrected for the inner filter effect (IFE) according to the Lakowicz method to ensure that the obtained binding parameters were not impacted by absorption artifacts.
To account for the possible influence of inner filter effects (IFE), the fluorescence intensities were corrected using the following formula (Eq. 1): 1
The process of fluorescence quenching was determined using the Stern-Volmer equation (Eq. 2): 2
The KSV and Kq values were determined by the graph of F0/F against [Q]
Stoichiometric analysis is used to define the various equilibria for a macromolecule’s binding of a ligand by binding sites (n). The number of binding sites (n) and the binding constant (Kb) were calculated using the modified Stern–Volmer equation (Eq. 3). 3
The thermodynamic characteristics of the binding reaction serve as the primary evidence for the binding force. Hydrogen bonds, hydrophobic forces, electrostatic interactions, van der Waals interactions, and other binding forces could all be present between small molecules and biomacromolecules. The temperature dependence of the binding constant was thus measured for this purpose at three distinct temperatures: 303, 310, and 318 K (Fig. 4).
The Gibbs–Helmholtz equation provided below was used to assess the free energy change (ΔG) value (Eq. 5).

T1 sequence (P02769 25-607): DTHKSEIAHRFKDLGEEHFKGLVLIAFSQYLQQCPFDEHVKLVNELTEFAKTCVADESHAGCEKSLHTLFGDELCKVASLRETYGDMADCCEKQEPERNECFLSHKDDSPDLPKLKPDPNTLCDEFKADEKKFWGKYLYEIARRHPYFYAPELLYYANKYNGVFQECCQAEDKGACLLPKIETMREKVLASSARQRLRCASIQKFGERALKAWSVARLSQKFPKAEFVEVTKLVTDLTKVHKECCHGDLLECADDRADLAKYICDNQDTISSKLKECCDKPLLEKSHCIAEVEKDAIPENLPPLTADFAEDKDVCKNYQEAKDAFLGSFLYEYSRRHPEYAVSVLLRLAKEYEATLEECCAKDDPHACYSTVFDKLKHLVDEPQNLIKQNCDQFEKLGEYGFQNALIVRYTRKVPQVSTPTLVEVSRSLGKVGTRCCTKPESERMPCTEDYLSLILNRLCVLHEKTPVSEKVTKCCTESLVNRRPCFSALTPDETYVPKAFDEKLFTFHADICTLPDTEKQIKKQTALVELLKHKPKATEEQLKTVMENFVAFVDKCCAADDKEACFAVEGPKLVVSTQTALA

## Cc1cncc(CN2CCC(=C3c4ccc(Cl)cc4CCc4cccnc43)CC2)c1 [RUPA, 13-chloro-2-[1-[(5-methylpyridin-3-yl)methyl]piperidin-4-ylidene]−4-azatricyclo [9.4.0.03,8] pentadeca-1(11),3(8),4,6,12,14-hexaene]
[1]
  effect on ovarian cancer cell proliferation and migration: prevent ovarian cancer cells from proliferating and migrating
[2]; ∆λ = 15 nm (Tyr)
  shift in synchronous fluorescence: no shift
[2]; ∆λ = 60 nm (Trp)
  red shift of ∆λmax in synchronous fluorescence: about 2 nm
[3]
  attached to plasma proteins: approximately 99%
[4]
  amide I peak location of BSA following the RUPA reaction: 1642 cm^− 1
[5]
  binding site of RUPA on BSA: site I
[6]; 303 K
  n (number of binding sites): 0.57
[6]; 303 K, pH 7.4
  Ksv (Stern-Volmer quenching constant): 1.07 × 10^4 L.mol^− 1
[6]; 310 K
  n (number of binding sites): 0.83
[6]; 310 K, pH 7.4
  Ksv (Stern-Volmer quenching constant): 0.82 × 10^4 L.mol^− 1
[6]; 310 K, τ0 = 10^-8 s
  Kq (quenching rate constant): 0.82 × 10^12 L.mol^− 1.s^− 1
[6]; 318 K
  n (number of binding sites): 1.06
[6]; 318 K, pH 7.4
  Ksv (Stern-Volmer quenching constant): 0.48 × 10^4 L.mol^− 1
[6]; pH 7.4, 303 K
  ∆G^o (Gibbs free energy change): -3.4823 kcal/mol
[6]; pH 7.4, 318 K
  ∆G^o (Gibbs free energy change): -5.2287 kcal/mol
[6]; pH 7.4, van't Hoff, 303-318 K
  ∆H^o (enthalpy change): 31.7935 kcal/mol
  ∆S^o (entropy change): 0.487 KJ mol^− 1 K^− 1
[6]; within the examined temperature range
  enthalpy change (ΔH): 133.024 kJ mol^− 1

— article PMC13064039, “Exploring the binding interaction of rupatadine with bovine serum albumin using multi-spectroscopic and molecular modeling approaches” (BMC Chemistry, 2026)
